According to the supplement of paper PMC10307832:

How the values were obtained:
Assay in all cases: relative viability (nuclei count vs DMSO), 5 days (fraction); higher = more cells survive
CUDC-101 + Linsitinib = compound: C#Cc1cccc(Nc2ncnc3cc(OC)c(OCCCCCCC(=O)NO)cc23)c1 [CUDC-101] + C[C@]1(O)C[C@@H](c2nc(-c3ccc4ccc(-c5ccccc5)nc4c3)c3c(N)nccn32)C1 [Linsitinib] (partner 1 µM)
Summary of the method: (§1)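 Relative viability was taken as the ratio of nuclei in treated wells to nuclei in vehicle wells. Lung cancer cell lines in 1536-well plates received compounds by pin tool one day after seeding, either one drug alone or a fixed anchor-drug dose plus five library-drug doses (not always all listed) in √10 steps. Nuclei were counted on 4× images after 5 days of treatment, and values are medians of duplicate plates.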

[1] = compound: C1=CC=C2C(=C1)N=C(S2)C(C#N)C3=NC(=NC=C3)NCCC4=CN=CC=C4 + CC(C)C[C@H](NC(=O)[C@H](Cc1ccccc1)NC(=O)c1cnccn1)B(O)O [Bortezomib] (partner 0.002 µM)
Summary of the method: as §1

[2] = compound: C1=CC=C2C(=C1)N=C(S2)C(C#N)C3=NC(=NC=C3)NCCC4=CN=CC=C4 + Cc1cc(Nc2cc(N3CCN(C)CC3)nc(Sc3ccc(NC(=O)C4CC4)cc3)n2)n[nH]1 [Tozasertib] (partner 0.1 µM)
Summary of the method: as §1

Vandetanib + Lapatinib = compound: COc1cc2/c(=N/c3ccc(Br)cc3F)nc[nH]c2cc1OCC1CCN(C)CC1 [Vandetanib] + CS(=O)(=O)CCNCc1ccc(-c2ccc3ncnc(Nc4ccc(OCc5cccc(F)c5)c(Cl)c4)c3c2)o1 [Lapatinib] (partner 2 µM)
Summary of the method: as §1

Cell Line | relative viability (CUDC-101 + Linsitinib; first compound 0.01 µM) | relative viability (CUDC-101 + Linsitinib; first compound 0.03162 µM) | relative viability (CUDC-101 + Linsitinib; first compound 0.1 µM) | relative viability (CUDC-101 + Linsitinib; first compound 0.3162 µM) | relative viability (CUDC-101 + Linsitinib; first compound 1 µM) | relative viability ([1]; first compound 0.005 µM) | relative viability ([1]; first compound 0.01581 µM) | relative viability ([1]; first compound 0.05 µM) | relative viability ([1]; first compound 0.1581 µM) | relative viability ([1]; first compound 0.5 µM) | relative viability ([2]; first compound 0.005 µM) | relative viability ([2]; first compound 0.01581 µM) | relative viability ([2]; first compound 0.05 µM) | relative viability ([2]; first compound 0.1581 µM) | relative viability ([2]; first compound 0.5 µM) | relative viability (Vandetanib + Lapatinib; first compound 0.02 µM) | relative viability (Vandetanib + Lapatinib; first compound 0.06325 µM) | relative viability (Vandetanib + Lapatinib; first compound 0.2 µM) | relative viability (Vandetanib + Lapatinib; first compound 0.6325 µM) | relative viability (Vandetanib + Lapatinib; first compound 2 µM)
HOP-62 | 1.06 | 0.992 | 0.842 | 0.853 | 0.596 | 0.798 | 0.576 | 0.907 | 1.09 | 0.738 | 0.291 | 0.42 | 0.398 | 0.366 | 0.372 | 0.81 | 0.923 | 1.07 | 0.932 | 0.892
LC-2-ad | 0.86 | 0.846 | 0.882 | 0.802 | 0.472 | 1 | 1.08 | 1.01 | 1.08 | 0.944 | 0.358 | 0.433 | 0.405 | 0.449 | 0.437 | 0.896 | 0.949 | 0.506 | 0.783 | 0.711
LCLC-97TM1 | 0.211 | 0.158 | 0.201 | 0.166 | 0.151 | – | 0.356 | 0.627 | 0.754 | 0.291 | 0.294 | 0.214 | 0.273 | 0.256 | 0.281 | 0.864 | 1.05 | 0.909 | 0.841 | 0.8
LOU-NH91 | 0.978 | 0.634 | 0.564 | 0.599 | 0.453 | 0.492 | 0.515 | 0.507 | 0.464 | 0.43 | 0.652 | 0.606 | 0.599 | 0.689 | 0.59 | 0.739 | 0.761 | 0.783 | 0.764 | 0.799
LU99A | 0.565 | 0.484 | 0.482 | 0.54 | 0.242 | 1.08 | 1.14 | 1.1 | 1.27 | 1.43 | 0.258 | 0.247 | 0.224 | 0.278 | 0.214 | 0.973 | 0.869 | 1.01 | 0.828 | 1.04
LXF-289 | 0.989 | 1.04 | 0.979 | 0.992 | 0.781 | 0.888 | 1.03 | 1.02 | 1.06 | 0.717 | 0.173 | 0.197 | 0.184 | 0.232 | 0.237 | 0.899 | 0.842 | 0.89 | 0.871 | 0.887
NCI-H23 | 0.667 | 0.51 | 0.606 | 0.661 | 0.435 | – | 0.917 | 1.01 | 1.37 | 0.92 | 0.634 | 0.304 | 0.35 | 0.301 | 0.343 | 1.07 | 0.971 | 0.969 | 1.28 | 0.962
NCI-H322M | 0.882 | 0.76 | 0.741 | 0.803 | 0.737 | 0.947 | 1.31 | 1.21 | 1.32 | 1.23 | 0.4 | 0.382 | 0.487 | 0.531 | 0.48 | 0.6 | 0.534 | 0.567 | 0.516 | 0.5
NCI-H460 | 0.928 | 0.648 | 0.901 | 0.757 | 0.595 | – | 1.09 | 1.08 | 1.42 | 0.609 | 0.396 | 0.282 | 0.302 | 0.204 | 0.0413 | 0.878 | 0.962 | 0.969 | 0.951 | 0.874
NCI-H520 | 0.997 | – | 1.05 | 0.982 | 0.485 | 0.348 | 0.526 | 0.577 | 1.27 | 0.406 | 0.406 | 0.431 | 0.467 | 0.376 | 0.421 | 0.679 | 0.807 | 0.918 | 0.936 | 0.831
NCI-H596 | 1.08 | 0.923 | 1.03 | 1.13 | 0.882 | 0.72 | 0.969 | 0.938 | 1.43 | 1.16 | 0.774 | 1 | 0.81 | 0.917 | 0.853 | 1.1 | 0.912 | 1.11 | 1.1 | 0.947
NCI-H647 | 1.23 | 1.03 | 1.18 | 1.1 | 1.12 | – | 1.04 | 0.869 | 1.05 | 0.989 | 0.315 | 0.342 | 0.289 | 0.292 | 0.151 | 1.02 | 1.09 | 1.09 | 1.08 | 0.999
NCI-H650 | 0.992 | 0.876 | 1.04 | 0.662 | 0.688 | 0.482 | 0.528 | 0.748 | 1.22 | 0.778 | 0.633 | – | 0.708 | 0.742 | 0.644 | 1.06 | 1.04 | 0.636 | 0.896 | 0.308
NCI-H661 | 0.64 | 0.487 | 0.74 | 0.681 | 0.675 | 0.708 | 0.824 | 0.662 | 0.695 | 0.794 | 0.365 | 0.332 | 0.342 | 0.355 | 0.392 | 0.547 | 0.532 | 0.555 | 0.607 | 0.365
NCI-H727 | 0.204 | 0.207 | 0.308 | 0.396 | 0.242 | 0.526 | 0.76 | 0.819 | 1.13 | 0.624 | 0.629 | 0.674 | 0.51 | 0.512 | 0.686 | 0.847 | 0.661 | 0.786 | 0.91 | 0.625
NCI-H838 | 1.08 | 0.85 | 1.08 | 1.06 | 0.898 | 0.641 | 0.834 | 0.841 | 1.05 | 0.752 | 0.28 | 0.289 | 0.243 | 0.282 | 0.223 | 0.937 | 0.953 | 0.958 | 0.958 | 0.99
